In patent publication US10874646B2, “Epothilone analogs, methods of synthesis, methods of treatment, and drug conjugates thereof” (WILLIAM MARSH RICE UNIVERSITY, priority 2015, dated 2020):
Where two headings read alike, the source gives them in different places.

What was measured:
NCI/ADR-RES = assay: Cytotoxicity, standard NCI assay with sulforhodamine B, 96 h; assay type: cell-based, human; conditions: read-out: Cytotoxicity (nM, ± SD) NCI/ADR-RES
MDA-MB-435 = assay: as above; assay type: cell-based, human; conditions: read-out: Cytotoxicity (nM, ± SD) MDA-MB-435
MCF-7 = assay: as above; conditions: for IC50: read-out: Cytotoxicity (nM, ± SD) MCF-7; for GI50: read-out: cytotoxicity (GI50, nM ± SD) MCF-7
OVCAR-8 = assay: as above; conditions: for IC50: read-out: Cytotoxicity (nM, ± SD) OVCAR-8; for GI50: read-out: cytotoxicity (GI50, nM ± SD) OVCAR-8
SNB-75 = assay: as above; assay type: cell-based, human; conditions: read-out: Cytotoxicity (nM, ± SD) SNB-75
tubulin = assay: Induction/enhancement of tubulin assembly (Lin, et al., 1996); assay type: biochemical; conditions: 10 μM tubulin, 0.4M monosodium glutamate, 30 min at room temperature
[1] = Homo sapiens, NCI/ADR-RES, 96 h
[2] = Table 3, read-out: Enhancement of tubulin assembly (EC50)
[3] = OVCAR-8, 96 h at 37° C., Table 2
[4] = Table 2, read-out: induction of tubulin assembly (EC50, μM ± SD)
[5] = NCI/ADR-RES (overexpresses P-glycoprotein), IC50, 96 h at 37° C., Table 3
[6] = MDA-MB-435, IC50, 96 h at 37° C., Table 3
[7] = MCF-7, IC50, 96 h at 37° C., Table 3
[8] = OVCAR-8, IC50, 96 h at 37° C., Table 3
[9] = SNB-75, IC50, 96 h at 37° C., Table 3

SMILES	IC50 (NCI/ADR-RES; [1]) [nM]	IC50 (MDA-MB-435; Homo sapiens, MDA-MB-435, 96 h) [nM]	IC50 (MCF-7; Homo sapiens, MCF7, 96 h) [nM]	IC50 (OVCAR-8; Homo sapiens, OVCAR-8, 96 h) [nM]	IC50 (SNB-75; Homo sapiens, SNB-75, 96 h) [nM]	EC50 (tubulin; [2]) [µM]	EC50 (tubulin; [4]) [µM]	other results
CSc1nc(/C=C(\C)[C@@H]2C[C@@H]3N(CC4CC4)[C@]3(C)CCC[C@H](C)[C@H](O)[C@@H](C)C(=O)C(C)(C)[C@@H](O)CC(=O)O2)cs1 (stereo partly shown) [Compound 81]	18 ± 4	9.5 ± 2	18 ± 3	15 ± 2	16 ± 3	5.1 ± 0.4		
C/C1=C/C[C@@H](/C(C)=C/c2csc(C)n2)OC(=O)C[C@H](O)C(C)(C)C(=O)[C@H](C)[C@@H](O)[C@@H](C)CCC1 [EpoD, epothilone D, reference compound]							18	GI50 (MCF-7; MCF-7, 96 h at 37° C., Table 2): 14 ± 1 nM; GI50 (OVCAR-8; [3]): 13 ± 4 nM
C/C(=C\c1csc(C)n1)[C@@H]1C/C=C\CCC[C@H](C)[C@H](O)[C@@H](C)C(=O)C(C)(C)[C@@H](O)CC(=O)O1 [EpoC, epothilone C, reference compound]							18	GI50 (MCF-7; MCF-7, 96 h at 37° C., Table 2): 70 nM; GI50 (OVCAR-8; [3]): 110 ± 7 nM
C/C(=C\c1csc(C)n1)[C@@H]1C[C@@H]2O[C@@H]2CCC[C@H](C)[C@H](O)[C@@H](C)C(=O)C(C)(C)[C@@H](O)CC(=O)O1 [EpoA, epothilone A]						14 ± 3	16 ± 2	IC50 (NCI/ADR-RES; [5]): 35 ± 5 nM; IC50 (MDA-MB-435; [6]): 15 ± 2 nM; IC50 (MCF-7; [7]): 14 ± 4 nM; GI50 (MCF-7; MCF-7, 96 h at 37° C., Table 2): 10 ± 2 nM; IC50 (OVCAR-8; [8]): 20 ± 5 nM; GI50 (OVCAR-8; [3]): 11 ± 2 nM; IC50 (SNB-75; [9]): 14 ± 3 nM
C/C(=C\c1csc(C)n1)[C@@H]1C[C@@H]2N[C@]2(C)CCC[C@H](C)[C@H](O)[C@@H](C)C(=O)C(C)(C)[C@@H](O)CC(=O)O1 [Compound 70]	35 ± 7		2	1.5 ± 0.7		19		
CC(=O)O[C@H]1C(=O)[C@@]2(C)[C@H]([C@H](OC(=O)c3ccccc3)[C@]3(O)C[C@H](OC(=O)[C@H](O)[C@@H](NC(=O)c4ccccc4)c4ccccc4)C(C)=C1C3(C)C)[C@]1(OC(C)=O)CO[C@@H]1C[C@@H]2O [PTX, paclitaxel, reference compound]			7.8 ± 2	10 ± 2		5 ± 1		IC50 (NCI/ADR-RES; Homo sapiens, NCI/ADR-RES (overexpresses P-glycoprotein), IC50, 96 h at 37° C., Table 3): 4200 nM; IC50 (MDA-MB-435; Homo sapiens, MDA-MB-435, IC50, 96 h at 37° C., Table 3): 4 ± 1 nM; GI50 (MCF-7; Homo sapiens, MCF7, 96 h): 8.5 nM; GI50 (OVCAR-8; Homo sapiens, OVCAR-8, 96 h): 6.5 ± 2 nM; IC50 (SNB-75; Homo sapiens, SNB-75, IC50, 96 h at 37° C., Table 3): 15 nM
CSc1nc(/C=C(\C)[C@@H]2C[C@@H]3N(CCN=[N+]=[N-])[C@]3(C)CCC[C@H](C)[C@H](O)[C@@H](C)C(=O)C(C)(C)[C@@H](O)CC(=O)O2)cs1 (stereo partly shown) [Compound 80]	3.2 ± 0.8	7.3 ± 2	13 ± 3	15	22 ± 3	5.4 ± 0.6		
C/C(=C\c1csc(CCN)n1)[C@@H]1C[C@@H]2N(CCO)[C@]2(C)CCC[C@H](C)[C@H](O)[C@@H](C)C(=O)C(C)(C)[C@@H](O)CC(=O)O1 (stereo partly shown) [Compound 76]	45 ± 6	3.8 ± 0.7	15 ± 3	8.6 ± 1	50 ± 10	9.1 ± 1		
CSc1nc(/C=C(\C)[C@@H]2C[C@@H]3N(CCN)[C@]3(C)CCC[C@H](C)[C@H](O)[C@@H](C)C(=O)C(C)(C)[C@@H](O)CC(=O)O2)cs1 (stereo partly shown) [Compound 79]	70 ± 10	15 ± 4	14 ± 2	63 ± 3	23 ± 6	6.1 ± 0.1		
C/C(=C\c1ccccn1)[C@@H]1C[C@@H]2N(CCO)[C@]2(C)CCC[C@H](C)[C@H](O)[C@@H](C)C(=O)C(C)(C)[C@@H](O)CC(=O)O1 (stereo partly shown) [Compound 73]	4000	30 ± 4	250 ± 40	170 ± 20	98 ± 10	> 60		
C/C(=C\c1csc(C)n1)[C@@H]1C[C@@H]2O[C@]2(C)CCC[C@H](C)[C@H](O)[C@@H](C)C(=O)C(C)(C)[C@@H](O)CC(=O)O1 [EpoB, epothilone B, reference compound]						[…]	[…]	IC50 (NCI/ADR-RES; [5]): 19 ± 4 nM; IC50 (MDA-MB-435; [6]): 5.3 ± 0.7 nM; IC50 (MCF-7; [7]): 9.2 ± 2 nM; GI50 (MCF-7; MCF-7, 96 h at 37° C., Table 2): 5.5 nM; IC50 (OVCAR-8; [8]): 11 ± 3 nM; GI50 (OVCAR-8; [3]): […]; IC50 (SNB-75; [9]): 6.5 ± 2 nM
C/C(=C\c1csc(N)n1)[C@@H]1C[C@@H]2N(CCO)[C@]2(C)CCC[C@H](C)[C@H](O)[C@@H](C)C(=O)C(C)(C)[C@@H](O)CC(=O)O1 (stereo partly shown) [Compound 83]	3800	220 ± 30	330 ± 40	290 ± 10	280 ± 30	13 ± 0.4		
CSc1nc(/C=C(\C)[C@@H]2C[C@@H]3N[C@]3(C)CCC[C@H](C)[C@H](O)[C@@H](C)C(=O)C(C)(C)[C@@H](O)CC(=O)O2)cs1 [Compound 77]	8.8 ± 1	4.5 ± 0.5	4 ± 1	16 ± 4	11 ± 3	5 ± 1		
C/C(=C\c1csc(C)n1)[C@@H]1C[C@@H]2O[C@]2(C)CCC[C@H](C)[C@H](O)[C@@H](C)C(=O)C(C)(C)[C@@H](O)CC(=O)N1 [Ixab, ixabepilone, reference compound]							4.5 ± 0.7	GI50 (MCF-7; Homo sapiens, MCF7, 96 h): 7 ± 1 nM; GI50 (OVCAR-8; Homo sapiens, OVCAR-8, 96 h): 35 ± 10 nM
C/C(=C\c1csc(C)n1)[C@@H]1C[C@@H]2N(CCO)[C@]2(C)CCC[C@H](C)[C@H](O)[C@@H](C)C(=O)C(C)(C)[C@@H](O)CC(=O)O1 (stereo partly shown) [Compound 71]	55 ± 20		3 ± 1	4.5 ± 0.7		18.2		
CSc1nc(/C=C(\C)[C@@H]2C[C@@H]3N(CCO)[C@]3(C)CCC[C@H](C)[C@H](O)[C@@H](C)C(=O)C(C)(C)[C@@H](O)CC(=O)O2)cs1 (stereo partly shown) [Compound 78]	55 ± 7	42 ± 5	28 ± 6	75 ± 10	60 ± 10	14 ± 3		
C/C(=C\c1nc2ccccc2s1)[C@@H]1C[C@@H]2N(CCO)[C@]2(C)CCC[C@H](C)[C@H](O)[C@@H](C)C(=O)C(C)(C)[C@@H](O)CC(=O)O1 (stereo partly shown) [Compound 74]	630 ± 80	3.5 ± 0.3	11 ± 1	23 ± 7	12 ± 3	7.9 ± 1		
C/C(=C\c1csc(CN)n1)[C@@H]1C[C@@H]2N(CCO)[C@]2(C)CCC[C@H](C)[C@H](O)[C@@H](C)C(=O)C(C)(C)[C@@H](O)CC(=O)O1 (stereo partly shown) [Compound 75]	2800	20 ± 3	65 ± 7	93 ± 20	130 ± 20	> 60		
C/C(=C\c1ccn(-c2ccc(N)cc2C(F)(F)F)n1)[C@@H]1C[C@@H]2O[C@]2(C)CCC[C@H](C)[C@H](O)[C@@H](C)C(=O)C(C)(C)[C@@H](O)CC(=O)O1 [Compound 13]							> 40	GI50 (MCF-7; Homo sapiens, MCF7, 96 h): 9 ± 1 nM; GI50 (OVCAR-8; Homo sapiens, OVCAR-8, 96 h): 35 ± 5 nM
CSc1cc(/C=C(\C)[C@@H]2C[C@@H]3N(CCO)[C@]3(C)CCC[C@H](C)[C@H](O)[C@@H](C)C(=O)C(C)(C)[C@@H](O)CC(=O)O2)nn1C (stereo partly shown) [Compound 82]	7.5 ± 2	12 ± 2	10 ± 1	78 ± 4	10 ± 2	4.6 ± 0.9		
